In PMC6268972, “Antiproliferative, Antimicrobial and Apoptosis Inducing Effects of Compounds Isolated from Inula viscosa” (Molecules, 2012):
Values after ≈ are worked out from the molar mass of the structure shown. Read-outs that look alike come from different tables or passages of the source.

How the values were obtained:
Candida albicans = assay: Microtiter plate dilution MIC, C. albicans; assay type: cell-based; settings: for MIC: Candida albicans, read-out: Minimum inhibitory concentration (MIC) C.a
Protocol: (§1) The microbial strains used in this study were Escherichia coli (ATCC 10798), Salmonella typhimurium (ATCC14028), Methicillin resistant Staphylococcus aureus (MRSA, Clinical isolate), Bacillus cereus (Toxigenic strain TS), and Candida albicans (ATCC 90028). Bacterial strains were stocked onto nutrient agar slant at 4 °C, and Candida albicans was stocked onto malt agar slant at 4 °C.
(§2) The microtiter plate dilution method was used to determine the MIC (minimum inhibitory concentration) of compounds under study. Sterile 96-well microplates (Nunc) were used for the assay. Stock compounds were dissolved in DMSO so that the final concentrations in micro wells were less than 1% DMSO and solvent controls were run at these concentrations. Positive controls of penicillin G and tetracycline (Oxoid, Hampshire, UK) were prepared at the following concentrations 2, 4, 8, 16, 31, 62.5, 125, and 250 μg/mL. 1% DMSO was used as a solvent control. Compounds were diluted to twice the desired initial test concentration (250 µg/mL) with Muller Hinton broth (MHB) (Oxoid). All wells, except the first were filled with MHB (50 μL). Compounds (100 μL) were added to the first well and serial two-fold dilutions were made down to the desired minimum concentration (2 μg/mL). An over-night culture of bacteria suspended in MHB was adjusted to turbidity equal to 0.5 McFarland standard. The plates were inoculated with bacterial suspension (50 μL/well) and incubated at 37 °C for 24 h. Then the turbidity was measured using micro-plate reader (Biotek) at 620 nm wavelength. The same procedure was used to determine the antifungal activity of compounds against Candida albicans. The medium used was malt extract broth. The yeast cells were suspended in 0.85% saline, with an optical density equivalent to 0.5 McFarland standard, and diluted 1:100 in malt extract broth to obtain the working concentration. After 24 h incubation with each compound, the turbidity was measured at 530 nm wavelength using a spectrophotometer (Biotek). Percentage inhibition for tested microorganisms was calculated using the following formula:
(§3) MIC was determined as the lowest concentration of the compound that causes complete inhibition (100%) of each microorganism.

Escherichia coli = assay: Microtiter plate dilution MIC, E. coli; assay type: cell-based; settings: for MIC: Escherichia coli, read-out: Minimum inhibitory concentration (MIC) E.c
Protocol: as §1, §2, §3

[1] = tested on: Methicillin resistant Staphylococcus aureus (MRSA); assay: Microtiter plate dilution MIC, MRSA; assay type: cell-based; settings: 24 h; for MIC: Staphylococcus aureus, MRSA, read-out: Minimum inhibitory concentration (MIC) MRSA
Protocol: as §1, §2, §3

MCF-7 cells = assay: MTT antiproliferative activity assay, MCF-7; assay type: cell-based, human; settings: for IC50: Homo sapiens, read-out: IC50 MCF-7
Protocol: (§4) Hep-2 (larynx carcinoma, ATCC: CCL-23), MCF-7 (breast epithelial adenocarcinoma, ATCC: HTB-22), and Vero (African green monkey kidney, ATCC: CCL-81) cell lines were kindly provided by Dr. Mona Hassuneh (Department of Biological Sciences, University of Jordan). Cells were grown in Minimum Essential Medium Eagle (Gibco, Paisley UK) supplemented with 10% heat inactivated fetal bovine serum (Gibco, Paisley UK), 29 μg/mL L-glutamine, and 40 μg/mL gentamicin. Cells were incubated in a humidified atmosphere of 5% CO2 at 37 °C.
(§5) The antiproliferative activity of Inula viscosa compounds was measured using the MTT (3-(4,5-dimethylthiazol-2-yl)-2,5-diphenyltetrazolium bromide) assay (Promega, Madison, WI, USA). The assay detects the reduction of MTT by mitochondrial dehydrogenase to blue formazan product, which reflects the normal function of mitochondria and cell viability. Exponentially growing cells were washed and seeded at 17,000 cells/well for Hep-2 cell line and 11,000 cells/ well for MCF-7 cell line (in 200 μL of growth medium) in 96 well microplates (Nunc, Roskilde, Denmark). After 24 h incubation, a partial monolayer was formed then the media was removed and 200 μL of the medium containing the compound (initially dissolved in DMSO) were added and re-incubated for 48 h. Then 100 μL of the medium were aspirated and 15 μL of the MTT solution were added to the remaining medium (100 μL) in each well. After 4 h contact with the MTT solution, blue crystals were formed. One hundred μL of the stop solution were added and incubated further for 1 h.
(§6) Reduced MTT was assayed at 550 nm using a microplate reader (Biotek, Winooski, VT, USA). Control groups received the same amount of DMSO (0.1%).Untreated cells were used as a negative control while, cells treated with vincristine sulfate were used as a positive control. Eight concentrations (150, 100, 50, 20, 10, 5, 2, and 1 μg/mL) were prepared from each compound and tested against the three cell lines. IC50 values were calculated as the concentrations that show 50% inhibition of proliferation on any tested cell line. Stock solutions of the compounds were dissolved in (DMSO) then diluted with the medium and sterilized using 0.2 μm membrane filters. The toxicity of DMSO was determined and the final dilution of compounds used for treating the cells contained not more than 0.1% (non toxic concentration) DMSO. IC50 values were reported as the average of three replicates. The antiproliferative effect of the tested compounds was determined by comparing the optical density of the treated cells against the optical density of the control (cells treated with media containing 0.1% DMSO).

Bacillus cereus = assay: Microtiter plate dilution MIC, B. cereus; assay type: cell-based; settings: 24 h; for MIC: Bacillus cereus, read-out: Minimum inhibitory concentration (MIC) B.c
Protocol: as §1, §2, §3

Hep-2 cells = assay: MTT antiproliferative activity assay, Hep-2; assay type: cell-based; settings: for IC50: Homo sapiens, read-out: IC50 Hep-2
Protocol: as §4, §5, §6

Vero cells = assay: MTT antiproliferative activity assay, Vero; assay type: cell-based, African green monkey; settings: for IC50: Chlorocebus sabaeus, Vero, read-out: IC50 Vero
Protocol: as §4, §5, §6

Salmonella typhimurium = assay: Microtiter plate dilution MIC, S. typhimurium; assay type: cell-based; settings: for MIC: Salmonella enterica, ATCC 14028 / TYPHIMURIUM, read-out: Minimum inhibitory concentration (MIC) S.t
Protocol: as §1, §2, §3

[2] = ATCC 90028, malt extract broth, 24 h, 100% inhibition
[3] = ATCC 10798, 24 h, 100% inhibition
[4] = clinical isolate, 100% inhibition
[5] = MTT, 48 h treatment, average of three replicates
[6] = Toxigenic strain TS, 100% inhibition
[7] = ATCC14028, 24 h, 100% inhibition
[8] = ATCC10798, ATCC 10798, 24 h, 100% inhibition
[9] = ATCC90028, ATCC 90028, malt extract broth, 24 h, 100% inhibition
[10] = MCF7, MTT, 48 h treatment, average of three replicates
[11] = HEp-2, MTT, 48 h treatment, average of three replicates

Molecule | Minimum inhibitory concentration (MIC) C.a (Candida albicans; [2]) [µg/mL] | Minimum inhibitory concentration (MIC) E.c (Escherichia coli; [3]) [µg/mL] | Minimum inhibitory concentration (MIC) MRSA [1, 4] [µg/mL] | IC50 MCF-7 (MCF-7 cells; [5]) [µg/mL] | Minimum inhibitory concentration (MIC) B.c (Bacillus cereus; [6]) [µg/mL] | IC50 Hep-2 (Hep-2 cells; [5]) [µg/mL] | IC50 Vero (Vero cells; [5]) [µg/mL] | Minimum inhibitory concentration (MIC) S.t (Salmonella typhimurium; [7]) [µg/mL] | also measured
COc1cc(O)c2c(c1)O[C@H](c1ccc(O)c(O)c1)[C@@H](OC(C)=O)C2=O [3-O-Acetylpadmatin] | >250 | >250 | >250 | >150 | >250 | >150 | >150 | >250 | 
2-Desacetoxyxanthinin | >250 | >250 | >250 | >150 | >250 | >150 | >150 | >250 | 
CC1(C)S[C@@H]2[C@H](NC(=O)Cc3ccccc3)C(=O)N2[C@H]1C(=O)O [Penicillin G, reference compound] |  |  |  |  |  |  |  |  | MIC (Escherichia coli; [8]): 125 µg/mL (≈ 374 µM); MIC [1, 4]: > 250 µg/mL; MIC (Bacillus cereus; [6]): > 250 µg/mL; MIC (Salmonella typhimurium; [7]): 125 µg/mL (≈ 374 µM)
COc1c(O)cc2oc(-c3ccc(O)cc3)cc(=O)c2c1O [Hispidulin] |  |  |  |  |  |  |  |  | MIC (Candida albicans; ATCC90028, 24 h): > 250 µg/mL; MIC (Escherichia coli; ATCC10798, 24 h): > 250 µg/mL; MIC [1]: > 250 µg/mL; IC50 (MCF-7 cells; MCF7, 48 h): 10.3 ± 1.85 µg/mL (≈ 34.5 µM); MIC (Bacillus cereus): > 250 µg/mL; IC50 (Hep-2 cells; HEp-2, 48 h): 19.5 ± 1.06 µg/mL (≈ 64.9 µM); IC50 (Vero cells; 48 h): 105 ± 2.35 µg/mL (≈ 351 µM); MIC (Salmonella typhimurium; 24 h): > 250 µg/mL
C[C@@H]1[C@H](O)[C@@H](C)/C=C/C=C/CC/C=C/C=C/C=C/C=C/C(O[C@H]2O[C@H](C)[C@@H](O)[C@H](N)[C@@H]2O)CC2O[C@](O)(CC(O)C(O)CCC(O)CC(O)CC(O)CC(=O)O[C@H]1C)CC(O)C2C(=O)O (stereo partly shown) [Nystatin, reference compound] | 25 (≈ 27 µM) |  |  |  |  |  |  |  | 
C=C(C(=O)O)[C@@H]1CC[C@@]2(C)CC[C@@H](O)C(=C)C2C1 (stereo partly shown) [Viscic acid] | >250 | >250 | >250 | >150 | >250 | >150 | >150 | >250 | 
C=C(C(=O)O)[C@@H]1CC[C@@]2(C)C[C@@H](O)C[C@@](C)(O)[C@@H]2C1 [2α-Hydroxyilicic acid] | >250 | >250 | >250 | >150 | >250 | >150 | >150 | >250 | 
COc1c(O)cc2oc(-c3ccc(O)c(O)c3)cc(=O)c2c1O [Nepetin] | >250 | >250 | 250 (≈ 790 µM) | 5.87 ± 1.36 (≈ 18.6 µM) | >250 | 11.33 ± 0.98 (≈ 35.8 µM) | 103.54 ± 2.82 (≈ 327 µM) | >250 | 
C=C1C(=O)O[C@H]2CC(=C)[C@H]3CC[C@@](C)(O)[C@@H]3C[C@H]12 [Inuviscolide] |  |  |  |  |  |  |  |  | MIC (Candida albicans; [9]): > 250 µg/mL; MIC (Escherichia coli; [8]): > 250 µg/mL; MIC [1, 4]: > 250 µg/mL; IC50 (MCF-7 cells; [10]): > 150 µg/mL; MIC (Bacillus cereus; [6]): > 250 µg/mL; IC50 (Hep-2 cells; [11]): 148.8 ± 1.25 µg/mL (≈ 599 µM); IC50 (Vero cells; [5]): > 150 µg/mL; MIC (Salmonella typhimurium; [7]): > 250 µg/mL
Xepetin | >250 | >250 | >250 | >150 | >250 | >150 | >150 | >250 | 
C=C1C[C@@H]2OC(=O)[C@@H](C)[C@H]2C[C@@H]2[C@@H]1CC[C@@]2(C)O [11α,13-Dihydroinuviscolide] | >250 | >250 | >250 | >150 | >250 | >150 | >150 | >250 | 
CN(C)[C@@H]1C(O)=C(C(N)=O)C(=O)[C@@]2(O)C(O)=C3C(=O)c4c(O)cccc4[C@@](C)(O)[C@H]3C[C@@H]12 [Tetracycline, reference compound] |  |  |  |  |  |  |  |  | MIC (Escherichia coli; [8]): 150 µg/mL (≈ 338 µM); MIC [1, 4]: 125 µg/mL (≈ 281 µM); MIC (Bacillus cereus; [6]): 2 µg/mL (≈ 4.5 µM); MIC (Salmonella typhimurium; [7]): 4 µg/mL (≈ 9 µM)
C=C(C(=O)O)[C@@H]1CC[C@@]2(C)CCC[C@@](C)(O)[C@@H]2C1 [Ilicic acid] |  |  |  |  |  |  |  |  | MIC (Candida albicans; [9]): > 250 µg/mL; MIC (Escherichia coli; [8]): > 250 µg/mL; MIC [1, 4]: > 250 µg/mL; IC50 (MCF-7 cells; [10]): > 150 µg/mL; MIC (Bacillus cereus; [6]): > 250 µg/mL; IC50 (Hep-2 cells; [11]): > 150 µg/mL; IC50 (Vero cells; [5]): > 150 µg/mL; MIC (Salmonella typhimurium; [7]): > 250 µg/mL
CC[C@H](CC[C@@H](C)[C@H]1CC[C@H]2[C@@H]3CC=C4C[C@@H](O[C@@H]5O[C@H](CO)[C@@H](O)[C@H](O)[C@H]5O)CC[C@]4(C)[C@H]3CC[C@]12C)C(C)C [β-Sitosteryl glucoside] | >250 | >250 | >250 | >150 | >250 | >150 | >150 | >250 | 
